Each structure is given as a SMILES string.

The term IC50 denotes the concentration that inhibits the measured activity by half. A high value points to weaker potency.

Assay [1] concerns the target T1, untagged full length SMYD3 (Homo sapiens, UniProt Q9H7B4).
T1 construct: As protein untagged full length SMYD3 was used
T1 sequence (Q9H7B4 1-428): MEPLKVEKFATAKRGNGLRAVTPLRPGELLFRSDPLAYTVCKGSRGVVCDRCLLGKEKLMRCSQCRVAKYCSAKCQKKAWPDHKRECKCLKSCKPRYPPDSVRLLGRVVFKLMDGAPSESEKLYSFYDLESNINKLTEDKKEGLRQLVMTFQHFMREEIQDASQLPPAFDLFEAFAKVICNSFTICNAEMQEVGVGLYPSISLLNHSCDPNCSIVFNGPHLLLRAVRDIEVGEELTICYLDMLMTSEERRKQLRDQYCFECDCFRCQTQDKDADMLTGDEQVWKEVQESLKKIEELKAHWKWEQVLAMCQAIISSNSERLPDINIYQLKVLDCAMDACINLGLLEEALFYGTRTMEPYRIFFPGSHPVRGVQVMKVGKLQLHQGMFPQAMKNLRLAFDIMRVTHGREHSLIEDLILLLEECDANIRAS
As to the kind of experiment: Thermal Shift Assay. The conditions noted are these: protein 1.5-2.0 μM, 5× SYPRO Orange, scans 25° C. to 80° C.; control 4% DMSO. It counts as binding. The protocol: Thermal Shift Assay Thermal melting experiments were performed with a ViiA™ Real-Time PCR machine (Thermo Fisher Scientific) in 384-well microliter plate with a final volume of 5 μL. Melting curves were obtained at a protein concentration of 1.5-2.0 μM and 5× SYPRO Orange (Invitrogen) using buffer containing 20 mM Tris pH7.0; 150 mM NaCl; 1.0 mM DTT. As protein untagged full length SMYD3 was used. […] As control 4% DMSO was used. Scans were measured from 25° C. to 80° C. at a scanning rate of 0.1° C./sec. All TSA data were analyzed by using Genedata Assay Analyzer.

In the next assay the target is T2, SMYD3 (Homo sapiens, UniProt Q9H7B4).
T2 construct: The SMYD3 full length enzyme was produced in-house by expression (with an N-terminal 6×His tag) in E. coli; 6xHis (N); made in house; host or cells: E. coli
T2 sequence (Q9H7B4 1-428): T1 sequence (Q9H7B4 1-428)
The experiment in a line: SMYD3 Scintillation Proximity Assay (SPA), methylation of MAP3K2 Peptide. It counts as biochemical. The conditions noted are these: SMYD3 full length enzyme 10 nM, 3H-SAM 125 nM, MAP3K2 Peptide 1 μM, 120 min at 22° C. The protocol: SMYD3 Scintillation Proximity Assay (SPA)
The SMYD3 full length enzyme was produced in-house by expression (with an N-terminal 6×His tag) in E. coli and purification by affinity chromatography on a Ni-NTA Sepharose column followed by a size exclusion chromatography step on a Superdex 200 16/60 column (GE Healthcare).
To this end, 100-fold concentrated compound solutions (in DMSO) were previously prepared by serial dilution (1:3.4) of 2 mM stocks in a clear low volume 384-well source microtiter plate (Greiner Bio-One), from which 100 nl of compounds were transferred into a white low volume test microtiter plate from the same supplier. […] The resulting mixture (5 μl final volume) was shortly centrifuged (2 min., 1500 rpm) and incubated at 22° C. during 120 min. […] Plates containing the stopped reaction were sealed with transparent adhesive foil (Perkin Elmer), centrifuged (2 min., 1500 rpm), and further incubated overnight at 4° C. in order to allow the SPA signals to develop. Subsequently, the amount of product was evaluated by measuring the energy transfer from the […] emitted by the 3H-labeled substrate to the scintillator co-polymerized in the bead's matrix, using a TopCount NXT scintillation counter (Packard) with the standard instrument settings for this purpose. The resulting scintillation counts were taken as indicator for the amount of methylated peptide per well. […] IC50 values were calculated by fitting the normalized inhibition data to a 4-parameter logistic equation using the XLFit analysis software (IDBS).
In general terms: SPA uses beads or plates that emit light when radiolabelled molecules are held near them.

In the case of `C[C@H]1CC(=O)Nc2cc(C(=O)NCCC3CC3)ccc2N1C(=O)N1CCNCC1` [Example 41, (2S)—N-(2-cyclopropylethyl)-2-methyl-4-oxo-1-(piperazin-1-ylcarbonyl)-2,3,4,5-tetrahydro-1H-1,5-benzodiazepine-7-carboxamide], the “Thermal shift assay (° C.)” value in assay [1] came out at 7.22 °C. The IC50 on SMYD3 was found to be 265 nM.
On to `C[C@@H]1CC(=O)Nc2cc(C(=O)N(C)CCC3CC3)ccc2N1C(=O)N1CC2CC2C1` (stereo partly drawn) [Example 56, (2R)-1-(3-azabicyclo[3.1.0]hexane-3-carbonyl)-N-(2-cyclopropylethyl)-N,2-dimethyl-4-oxo-2,3,4,5-tetrahydro-1H-1,5-benzodiazepine-7-carboxamide], for which the IC50 against SMYD3 is > 30000 nM.
Regarding `C[C@H]1CC(=O)Nc2cc(C(=O)NCCC3CC3)ccc2N1C(=O)N1CCC(NCC(F)(F)F)CC1` [Example 29, (2S)—N-(2-cyclopropylethyl)-2-methyl-4-oxo-1-({4-[(2,2,2-trifluoroethyl)amino]piperidin-1-yl}carbonyl)-2,3,4,5-tetrahydro-1H-1,5-benzodiazepine-7-carboxamide], in assay [1], the “Thermal shift assay (° C.)” value is 5.51 °C. For the same compound, the IC50 against SMYD3 came out at 679 nM.
Take `CC1C(=O)Nc2cc(C(=O)NCCC3CCC3)ccc2N(C(=O)c2ccccc2)C1C` (mixture of isomers) [Example 4, 1-benzoyl-N-(2-cyclobutylethyl)-2,3-dimethyl-4-oxo-2,3,4,5-tetrahydro-1H-1,5-benzodiazepine-7-carboxamide]: the “Thermal shift assay (° C.)” value in assay [1] amounted to 4.38 °C. The compound further had an IC50 against SMYD3 of 1230 nM.
On to `Cc1nocc1C(=O)N1c2ccc(C(=O)NCCC3CCC3)cc2NC(=O)C(C)C1C` (single isomer, unassigned) [Example 15, N-(2-cyclobutylethyl)-2,3-dimethyl-1-[(3-methyl-1,2-oxazol-4-yl)carbonyl]-4-oxo-2,3,4,5-tetrahydro-1H-1,5-benzodiazepine-7-carboxamide], for which the “Thermal shift assay (° C.)” value in assay [1] turned out to be 1.27 °C. Also, the IC50 against SMYD3 is ≥ 20000 nM.
Turning to `CCCCCNC(=O)c1ccc2c(c1)NC(=O)CC(C)N2C(=O)c1ccc(C)cc1` (racemic) [Example 47, 2-methyl-1-(4-methylbenzoyl)-4-oxo-N-pentyl-2,3,4,5-tetrahydro-1H-1,5-benzodiazepine-7-carboxamide], the “Thermal shift assay (° C.)” value in assay [1] was found to be 1.68 °C. This compound also registered an IC50 against SMYD3 of 22100 nM.
On SMYD3, `C[C@@H]1CC(=O)Nc2cc(C(=O)NCCC3CC3)ccc2N1C(=O)N1CC2CC2C1` (stereo partly drawn) [Example 55, (2R)-1-(3-azabicyclo[3.1.0]hexane-3-carbonyl)-N-(2-cyclopropylethyl)-2-methyl-4-oxo-2,3,4,5-tetrahydro-1H-1,5-benzodiazepine-7-carboxamide] came in with an IC50 of 2640 nM.
In the case of `Cc1nocc1C(=O)N1c2ccc(C(=O)NCCC3CCC3)cc2NC(=O)CC1C` (racemic) [Example 6, N-(2-cyclobutylethyl)-2-methyl-1-[(3-methyl-1,2-oxazol-4-yl)carbonyl]-4-oxo-2,3,4,5-tetrahydro-1H-1,5-benzodiazepine-7-carboxamide], in assay [1], the “Thermal shift assay (° C.)” value came out at 2.83 °C. For the same compound, it took 12800 nM to reach half-maximal inhibition on SMYD3 (IC50).
On to `CCCNC(=O)c1ccc2c(c1)NC(=O)CC(C)N2C(=O)c1cccs1` (racemic) [Example 49, 2-methyl-4-oxo-N-propyl-1-(2-thienylcarbonyl)-2,3,4,5-tetrahydro-1H-1,5-benzodiazepine-7-carboxamide], for which the “Thermal shift assay (° C.)” value in assay [1] worked out at 1.43 °C.
With `C[C@H]1CC(=O)Nc2cc(C(=O)N(C)CCC3CC3)ccc2N1C(=O)N1CC2CC2C1` (stereo partly drawn) [Example 54, (2S)-1-(3-azabicyclo[3.1.0]hexane-3-carbonyl)-N-(2-cyclopropylethyl)-N,2-dimethyl-4-oxo-2,3,4,5-tetrahydro-1H-1,5-benzodiazepine-7-carboxamide], the IC50 at SMYD3 came out at 2530 nM.
In turn, `CCCCNC(=O)c1ccc2c(c1)NC(=O)CC(C)N2C(=O)C1CC1` (racemic) [Example 50, N-butyl-1-(cyclopropylcarbonyl)-2-methyl-4-oxo-2,3,4,5-tetrahydro-1H-1,5-benzodiazepine-7-carboxamide] came in with an IC50 against SMYD3 of 35000 nM.

The values above are taken from patent publication US11161825B2, “4-oxo-2,3,4,5-tetrahydro-1H-1,5-benzodiazepine-7-carboxamides” (Bayer Aktiengesellschaft, priority 2017, dated 2021).
